Holding throughout (type): cell-based
The subject of assay [1] is Wnt activity (Wnt-responsive human Sp5 promoter, TCF/LEF binding sites) in SW480 colon carcinoma cells. The assay can be described thus: Wnt activity screening assay: Sp5-Luc luciferase reporter gene in SW480 cells. As to conditions: 10-point dose-response from 10 μM, incubated overnight. An excerpt:
The screening assay for Wnt activity is described as follows. Reporter cell lines can be generated by stably transducing cancer cell lines (e.g., colon cancer) or primary cells (e.g., IEC-6 intestinal cells) with a lentiviral construct that includes a Wnt-responsive promoter driving expression of the firefly luciferase gene.
SW480 colon carcinoma cells were transduced with a lentiviral vector expressing luciferase with a human Sp5 promoter consisting of a sequence of eight TCF/LEF binding sites. SW480 cells stably expressing the Sp5-Luc reporter gene and a hygromycin resistance gene were selected by treatment with 150 μg/mL of hygromycin for 7 days. These stably transduced SW480 cells were expanded in cell culture and used for all further screening activities. Each compound was dissolved in DMSO as a 10 mM stock and used to prepare compound source plates. Serial dilution (1:3, 10-point dose-response curves starting from 10 μM) and compound transfer was performed using the ECHO 550 (Labcyte, Sunnyvale, Calif.) into 384-well white solid bottom assay plates (Greiner Bio-One) with appropriate DMSO backfill for a final DMSO concentration of 0.1%. For Sp5-Luc reporter gene assays, the cells were plated at 4,000 cells/well in 384-well plates with medium containing 1% fetal bovine serum and incubated overnight at 37° C. and 5% CO2. Following incubation, 20 μl of BrightGlo luminescence reagent (Promega) was added to each well of the 384-well assay plates. The plates were placed on an orbital shaker for 2 min and then luminescence was quantified using the Envision (Perkin Elmer) plate reader. Readings were normalized to DMSO only treated cells, and normalized activities were utilized for EC50 calculations using the dose-response log (inhibitor) vs. response-variable slope (four parameters) nonlinear regression feature available in GraphPad Prism 5.0 (or Dotmatics). For EC50 of >10 μM, the percent inhibition at 10 μM is provided.

Assay [2] deals with SW480 colon cancer cells. The assay can be described thus: Cell viability assay (CellTiter-Blue), four days. The settings on record: Homo sapiens, 96 h, CellTiter-Blue cell viability. The protocol: Representative compounds were screened using the following assay procedure to assess the effect on cell viability as described below.
Each compound was dissolved in DMSO as a 10 mM stock and used to prepare compound source plates. Serial dilution (1:3, 8-point dose-response curves from 10 μM to 0.0045 μM) and compound transfer was performed using the ECHO 550 (Labcyte, Sunnyvale, Calif.) into 96-well clear bottom, black-walled plates (Corning-Costar).
Approximately 2×10^3 SW480 colon cancer cells were seeded into each well and allowed to incubate in the presence or absence of compound for four days at 37° C./5% CO2. Eight replicates of DMSO-treated cells served as controls and cells treated with compound were performed in duplicate.
After incubation, 20 μL of CellTiter-Blue (Promega) was added to each well allowed to incubate for approximately 3 hours. This reagent was a buffered solution which contains resazurin, metabolically active cells were able to reduce rezarurin (blue) into resorufin (pink) which was highly fluorescent. This measured fluorescence was used as a readout for cell viability.
After incubation, the plates were read at Ex 560 nm Em 590 nm (Cytation 3, BioTek). Dose-response curves were generated and EC50 concentration values were calculated using non-linear regression curve fit in the GraphPad Prism (San Diego, Calif.) or Dotmatics' Studies Software (Bishops Stortford, UK). For EC50 of >10 μM, the percent inhibition at 10 μM is provided.

The subject of assay [3] is Primary human fibroblasts derived from IPF patients (LL29 cells) treated with TGF-β1. The experiment in a line: Inhibition of the fibrotic process: αSMA staining in TGF-β1 treated fibroblasts. The settings on record: Fibroblast, 96 h, LL29 fibroblasts treated with TGF-β1, 4 days. The source says:
Representative compounds were screened using primary human fibroblasts (derived from IPF patients) treated with TGF-β1 to determine their ability to inhibit the fibrotic process.
Primary human fibroblasts derived from IPF patients (LL29 cells) [^1Xiaoqiu Liu, et. al., “Fibrotic Lung Fibroblasts Show Blunted Inhibition by cAMP Due to Deficient cAMP Response Element-Binding Protein Phosphorylation”, Journal of Pharmacology and Experimental Therapeutics (2005), 315(2), 678-687; ^2Watts, K. L., et. al., “RhoA signaling modulates cyclin D1 expression in human lung fibroblasts; implications for idiopathic pulmonary fibrosis”, Respiratory Research (2006), 7(1), 88] were obtained from American Type Culture Collection (ATCC) and expanded in F12 medium supplemented with 15% Fetal Bovine Serum and Penicillin/Streptomycin.
Each compound was dissolved in DMSO as a 10 mM stock and used to prepare compound source plates. Serial dilution (1:2, 11-point dose-response curves from 10 μM to 1.87 nM) and compound transfer was performed using the ECHO 550 (Labcyte, Sunnyvale, Calif.) into 384-well clear bottom assay plates (Greiner Bio-One) with appropriate DMSO backfill for a final DMSO concentration of 0.1%. LL29 cells are plated at 1,500 cells/well in 80 μL/well F12 medium supplemented with 1% Fetal Bovine Serum. One hour after addition of the cells, TGF-β1 (Peprotech; 20 ng/mL) was added to the plates to induce fibrosis (ref. 1 and 2 above). Wells treated with TGF-β1 and containing DMSO were used as controls. Cells were incubated at 37° C. and 5% CO2 for 4 days. Following incubation for 4 days, SYTOX green nucleic acid stain (Life Technologies [Thermo Fisher Scientific]) was added to the wells at a final concentration of 1 μM and incubated at room temperature for 30 min. Cells were then fixed using 4% formaldehyde (Electron Microscopy Sciences), washed 3 times with PBS followed by blocking and permeabilization using 3% Bovine Serum Albumin (BSA; Sigma) and 0.3% Triton X-100 (Sigma) in PBS. Cells were then stained with antibody specific to α-smooth muscle actin (αSMA; Abcam) (ref. 1 and 2 above) in 3% Bovine Serum Albumin (BSA; Sigma) and 0.3% Triton X-100 (Sigma) in PBS, and incubated overnight at 4° C. Cells were then washed 3 times with PBS, followed by incubation with Alexa Flor-647 conjugated secondary antibody (Life Technologies [Thermo Fisher Scientific]) and DAPI at room temperature for 1 hour. Cells were then washed 3 times with PBS and plates were sealed for imaging. αSMA staining was imaged by excitation at 630 nm and emission at 665 nm and quantified using the Compartmental Analysis program on the CellInsight CX5 (Thermo Scientific). Dead or apoptotic cells were excluded from analysis based on positive SYTOX green staining. % of total cells positive for αSMA were counted in each well and normalized to the average of 11 wells treated with TGF-β1 on the same plate using Dotmatics' Studies Software. The normalized averages (fold change over untreated) of 3 replicate wells for each compound concentration were used to create dose-responses curves and EC50 values were calculated using non-linear regression curve fit in the Dotmatics' Studies Software. For EC50 of >10 μM, the percent inhibition at 10 μM is provided.

Assay [4] deals with IL-6 in human monocyte cell line (THP-1 cells). The assay can be described thus: IL-6 inhibition in LPS-stimulated THP-1 cells (HTRF). The settings on record: IL-6 in LPS-stimulated THP-1 cells, HTRF. The protocol:
Human monocyte cell line (THP-1 cells; Catalog # TIB-202, ATCC, Manassas, Va.) were cultured in Roswell Park Memorial Institute (RPMI) 1640 Medium (Catalog #21870-100, Buffalo, N.Y.) with 1% L-glutamine, 1% HEPES, 1% Sodium Pyruvate, 2% Sodium Bicarbonate supplemented with 100 units/mL penicillin, 50 μg/mL streptomycin, 2-mercaptoethanol (0.05 mM) [basal medium] and 10% fetal bovine serum (Catalog #16140089, Life Technologies, Carlsbad, Calif.) at 37° C. and 5% CO2.
THP-1 cells were cultured in basal media with 1% FBS for 24 hours before the start of the assay. Each compound was dissolved in DMSO as a 10 mM stock and used to prepare compound source plates. Serial dilution (1:3, 10-point dose-response curves starting from 10 μM) and compound transfer was performed using the ECHO 550 (Labcyte, Sunnyvale, Calif.) into 384-well white low volume assay plates (Greiner Bio-One) with appropriate DMSO backfill for a final DMSO concentration of 0.1%. THP-1 cells were plated at 5000 cells/well in the 384-well plates and incubated at 37° C. for 2 h. 500 ng/mL of LPS was added after 2 hours and cells were incubated for another 22 hours at 37° C. Plates were spun in a centrifuge for 1 minute at […] and a mixture of anti-IL6 XL665, and anti-IL6 Cryptate diluted in reconstitution buffer (Cisbio Inc.) was added to each well. Following incubation for 3 hrs at room temperature, Homogeneous Time-Resolved Fluorescence (HTRF) was measured using the Envision (Perkin Elmer) at 665 nm and […]. The ratio of fluorescence at 665 nm to 620 nm was used as a readout for IL6 quantification. All samples were processed in duplicate. Readings were normalized to DMSO treated cells and normalized activities were utilized for EC50 calculations using the dose-response log (inhibitor) vs. response-variable slope (four parameters) nonlinear regression feature available in GraphPad Prism 5.0 (or Dotmatics). For EC50 of >10 μM, the percent inhibition at 10 μM is provided.

The structures appear in SMILES notation.

For `CN1CCN(c2nccc3[nH]c(-c4n[nH]c5ccc(-c6cncc(OCc7ccccc7)c6)nc45)nc23)CC1` [Compound 646, 5-(5-(Benzyloxy)pyridin-3-yl)-3-(4-(4-methylpiperazin-1-yl)-1H-imidazo[4,5-c]pyridin-2-yl)-1H-pyrazolo[4,3-b]pyridine], the EC50 in assay [1] is 3.85 µM; in assay [2], 3.13 µM; in assay [3] it was 3.98 µM; in assay [4], 1.49 µM.

Regarding `Cc1ncc(-c2ccc3[nH]nc(-c4nc5c(-c6cc(F)cc(NCCN(C)C)c6)nccc5[nH]4)c3n2)n1C` [Compound 781, N^1-(3-(2-(5-(1,2-Dimethyl-1H-imidazol-5-yl)-1H-pyrazolo[4,3-b]pyridin-3-yl)-1H-imidazo[4,5-c]pyridin-4-yl)-5-fluorophenyl)-N^2,N^2-dimethylethane-1,2-diamine], the EC50 amounted to 1.88 µM in assay [1], 6.55 µM in assay [2], 3.1 µM in assay [3] and 3.91 µM in assay [4].

For the molecule `CN(C)CCNc1cc(F)cc(-c2nccc3[nH]c(-c4n[nH]c5ccc(-c6cncc(OCc7ccccc7)c6)nc45)nc23)c1` [Compound 790, N^1-(3-(2-(5-(5-(Benzyloxy)pyridin-3-yl)-1H-pyrazolo[4,3-b]pyridin-3-yl)-1H-imidazo[4,5-c]pyridin-4-yl)-5-fluorophenyl)-N^2,N^2-dimethylethane-1,2-diamine], the EC50 in assay [1] came to 1.11 µM; in assay [2], 1.57 µM; in assay [3], 3.17 µM; in assay [4] it was 0.038 µM.

Turning to `C1=C(c2ccc3[nH]nc(-c4nc5c(-c6ccc7c(c6)OCO7)nccc5[nH]4)c3n2)CCNC1` [Compound 1109, 3-(4-(Benzo[d][1,3]dioxol-5-yl)-1H-imidazo[4,5-c]pyridin-2-yl)-5-(1,2,3,6-tetrahydropyridin-4-yl)-1H-pyrazolo[4,3-b]pyridine], the concentration giving a half-maximal response (EC50) in assay [1] was found to be 0.652 µM; in assay [2], 3.41 µM; in assay [3] it was 3.85 µM; in assay [4] it was 0.154 µM.

Source of the values: patent publication US10195185B2, “3-(1H-imidazo[4,5-C]pyridin-2-yl)-1H-pyrazolo[4,3-B]pyridines and therapeutic uses thereof” (Samumed, LLC, priority 2015, dated 2019).
